Reference: article PMC12300743, “Unveiling the Solvent Effect: DMSO Interaction with Human Nerve Growth Factor and Its Implications for Drug Discovery” (Molecules, 2025)

Biological target: T1, hNGF (Homo sapiens, UniProt P01138)
T1 construct: gene NGF; homodimer; amine-coupled to the GCI chip
Assay: grating-coupled interferometry (Creoptix WAVE-delta, waveRAPID), hNGF immobilised by amine coupling
Format: binding

T1 sequence (P01138 122-239): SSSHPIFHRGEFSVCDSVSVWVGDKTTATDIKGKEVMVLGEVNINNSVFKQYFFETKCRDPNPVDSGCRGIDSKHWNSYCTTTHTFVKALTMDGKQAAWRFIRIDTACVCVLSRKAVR

C[S+](C)[O-] [DMSO]
Kd: ~2100 µM
